In patent publication US20230348564A1, “ANTI-CANCER PROTEINS” (UNICHEM LABORATORIES LTD, priority 2020, published 2023):

How the values were obtained:
[1] = test system: MCF-7 (Breast cancer); assay: Xenograft study; format: in vivo, mice; details: MCF-7 xenograft, IP
Text: (§1) The Xenograft models used were HT-29, KB, PA-1, MCF-7, PANC-1, T24 and MDA-MB-231. The basic study design for the Xenograft study was as follows: • 1. Cell maintenance and cell suspension preparation • 2. Aseptic injection of tumor cell suspension in the donor animal • 3. Randomization of animals in respective groups • 4. IP dosing of test items in predetermined doses • 5. IP administration of standard • 6. After completion of dosing period. • 7. The Tumor volume recording weekly twice while body weight and clinical signs daily.

[2] = test system: PA-1 (Ovary teratocarcinoma); assay: Xenograft study; format: in vivo, mice; details: PA-1 xenograft, IP
Text: as §1

[3] = test system: T24 (Urinary bladder/transitional cell carcinoma); assay: Xenograft study; format: in vivo, mice; details: IP
Text: as §1

[4] = test system: MDA-MB-231; assay: Annexin-V staining (flow cytometry); format: cell-based, Human; details: 24 h
Experimental: (§2) The cell lines were maintained in DMEM+10% FBS (heat inactivated) at 37° C. with 5% CO2, and 95% humidity. Antibiotics Penicillin (100 U/mL) and Streptomycin (100 μg/mL) were added to the medium.
(§3) The stock solution of recombinant lectin having the amino acid sequence of SEQ ID NO. […] Doxorubicin was used as positive control and stock solution was prepared in DMSO.
(§4) Cells were counted using hemocytometer and plated in culture plates at the density of 0.4×10^6 cells/well in DMEM+10% FBS in 6-well plates. Cells were incubated overnight to allow the cell recovery and exponential growth. Following overnight incubation, cells were treated with Lectin having the amino acid sequence of SEQ ID NO. 2 in DMEM+0% FBS at concentrations ranging from 2.5 μg/mL to 80 μg/mL. Untreated cells were included as Control group for sample. Cells treated with Doxorubicin were included as Positive Control group. DMSO treated cells were included as control group for Doxorubicin. After treatment, cells were incubated for a time period of 24 h.
(§5) Following incubation, the pro-apoptotic effect was estimated using Annexin assay kit as follows: Annexin reagent contains Annexin-V+7-AAD stain, which differentially labels apoptotic cells in different phases. Four populations of cells can be determined from the flow cytometric plots as follows: • a) Upper Left (UL)—7-AAD(+)/Annexin(−) or Necrotic cells • b) Upper Right (UR)—7-AAD(+)/Annexin(+) or Late apoptotic cells • c) Lower Left (LL)—7-AAD(−)/Annexin(−) or Viable/non-apoptotic cells • d) Lower Right (LR)—7-AAD(−)/Annexin(+) or Early apoptotic cells
(§6) Cells were gently harvested into pre-labeled sterile centrifuge tubes and centrifuged at 300×g for 5-7 min. Supernatant were discarded and the pellet was resuspended in 200 μl of fresh culture medium.
(§7) 100 μl of cell suspension was transferred into pre-labeled sterile centrifuge tubes.
(§8) 100 μl of Annexin-V reagent was added to each tube and incubated for 30 min at RT in dark.
(§9) Cells stained for Annexin-V were then transferred into 96-well plates and acquired on flow cytometer (Guava technologies). Percentage of cells in early apoptotic, late apoptotic and necrotic phase were determined.
(§10) Fold increase in apoptotic cells (treated with Test Items) was determined as compared to Control (untreated cells).

[5] = test system: PANC-1; assay: Annexin-V staining (flow cytometry); format: cell-based, Human; details: 24 h
Experimental: as §2, §3, §4, §5, §6, §7, §8, §9, §10

[6] = test system: MDA-MB-231; assay: Cell cycle analysis (PI stain); format: cell-based, Human; details: 24 h
Experimental: as §2, §3
(§11) Cells were counted using hemocytometer and plated in culture plates at density of 0.5×10^6 cells/well in DMEM+10% FBS in 6-well plates. Cells were incubated overnight to allow the cell recovery and exponential growth. Following overnight incubation, cells were sera starved in DMEM+1% FBS for 4 h. […] Untreated cells were included as Control group for test item. Cells treated with Doxorubicin were included as Positive Control group. DMSO treated cells were included as control group for Doxorubicin. After treatment, cells were incubated for a time period of 24 h. Following incubation, the pro-apoptotic effect by cell cycle was determined as follows: Cell cycle reagent contains PI stain, which stains DNA of cells in different phases of cell cycle; Sub(G0/G1), G1, S, G2 and M. Cells in Sub(G0/G1) phase correspond to apoptotic cells.
(§12) Cells were gently harvested into pre-labeled centrifuge tubes and centrifuged at 450 g for 5 min, RT (low brake). The supernatants were removed carefully (not to touch the pellet) and discarded. 1 mL of 1×PBS was added to the pellet and resuspended gently to make homogenous suspension. Cells were centrifuged at 450 g for 5 min, RT (low brake) (washing step). The supernatant was carefully removed leaving behind approx 100 μL of PBS. Cells were resuspended gently yet thoroughly in residual PBS. Ice-cold 70% ethanol (300 μLI) was added drop-wise into cells in each tube while vortexing at low speed (fixation step). Cells were stored at 4° C. for 24 h prior to staining.
(§13) Ethanol fixed cells were centrifuged at 450 g for 5 min, RT (low brake). The supernatant was carefully removed (not to touch the pellet) and discarded. (The pellet might not be visible but makes a thin film on surface of tube). 1 mL of 1×PBS was added into pellet and resuspended gently. Cells were incubated for 1 min at RT. Cells were centrifuged at 450 g for 5 min, RT (low brake) (washing step). The supernatant was removed carefully leaving behind approx 20 μL-50 μL of PBS. 200 μL of Cell Cycle reagent was added into each tube.
(§14) Cells were resuspended gently, mixed and were incubated for 30 min, RT, Dark. The stained samples were transferred into 96-well plates and acquired on flow cytometer (Guava technologies). Percentage of cells in Sub (G0/G1) phase were determined. Fold increase in apoptotic cells (treated with Test Items) was determined as compared to Control (untreated cells).

[7] = test system: PANC-1; assay: Cell cycle analysis (PI stain); format: cell-based, Human; details: 24 h
Experimental: as §2, §3, §11, §12, §13, §14

## COc1cccc2c1C(=O)c1c(O)c3c(c(O)c1C2=O)C[C@@](O)(C(=O)CO)C[C@@H]3O[C@H]1C[C@H](N)[C@H](O)[C@H](C)O1 [Doxorubicin, reference compound]
[1]
  Maximum Tumor Growth Inhibition (%): 65.23%
  Tumor Volume (mm^3) (Mean ± SEM): 771 ± 65 mm^3
[2]
  Maximum Tumor Growth Inhibition (%): 84.48%
  Tumor Volume (mm^3) (Mean ± SEM): 631 ± 87 mm^3
[3]
  Maximum Tumor Growth Inhibition (%): 59.07%
  Tumor Volume (mm^3) (Mean ± SEM): 366.32 ± 34.28 mm^3
[4]; 10 μM
  % Population of cells, LL Annex− 7AAD− Viable: 0.7%
  % Population of cells, LR Annex+ 7AAD− Early apoptotic: 6.8%
  % Population of cells, UL Annex− 7AAD+ Necrotic: 0.0%
  % Population of cells, UR Annex+ 7AAD+ Late apoptotic: 92.5%
[4]; 100 μM
  % Population of cells, LL Annex− 7AAD− Viable: 0.0%
  % Population of cells, LR Annex+ 7AAD− Early apoptotic: 0.0%
  % Population of cells, UL Annex− 7AAD+ Necrotic: 0.0%
  % Population of cells, UR Annex+ 7AAD+ Late apoptotic: 100.0%
[5]; 10 μM
  % Population of cells, LL Annex− 7AAD− Viable: 25.6%
  % Population of cells, LR Annex+ 7AAD− Early apoptotic: 6.0%
  % Population of cells, UL Annex− 7AAD+ Necrotic: 0.5%
  % Population of cells, UR Annex+ 7AAD+ Late apoptotic: 67.9%
[5]; 100 μM
  % Population of cells, LL Annex− 7AAD− Viable: 1.3%
  % Population of cells, LR Annex+ 7AAD− Early apoptotic: 1.9%
  % Population of cells, UL Annex− 7AAD+ Necrotic: 0.1%
  % Population of cells, UR Annex+ 7AAD+ Late apoptotic: 96.6%
[6]; 10 μM
  % Population of cells, Apoptotic Sub(G0/G1): 11.09%
  % Population of cells, G0/G1: 40.26%
  % Population of cells, G2/M: 18.52%
  % Population of cells, S: 22.70%
[6]; 100 μM
  % Population of cells, Apoptotic Sub(G0/G1): 92.02%
  % Population of cells, G0/G1: 5.64%
  % Population of cells, G2/M: 0.83%
  % Population of cells, S: 1.17%
[7]; 10 μM
  % Population of cells, Apoptotic Sub(G0/G1): 14.74%
  % Population of cells, G0/G1: 15.84%
  % Population of cells, G2/M: 27.44%
  % Population of cells, S: 18.45%
[7]; 100 μM
  % Population of cells, Apoptotic Sub(G0/G1): 89.13%
  % Population of cells, G0/G1: 9.65%
  % Population of cells, G2/M: 0.15%
  % Population of cells, S: 0.59%
